From US10174067B2, “Type of cytidine derivative and application thereof” (priority 2014, dated 2019)
Marks after values point to notes of the source that are not given here.

How the values were obtained:
[1] = tested on: HCT-116 colon cancer xenografts; experiment: Tumor growth inhibition of HCT-116 colon cancer xenografts in tumor-bearing nude mice (tumor volume, TGI %, RTV, T/C %); type: in vivo, Balb/c Nude mice; conditions: for T/C % (relative tumor proliferation rate): dosage 400 mg/kg (G10-G16 study);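 as to T/C % (relative tumor proliferation rate): control C is the vehicle-treated model control group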
Method in brief: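 Nude mice inoculated with HCT-116 cells (about 3×10^7 cells/mL in serum-free medium). Tumor diameter measured three times weekly and volume computed as V=3/4π(D/2)^3. Activity expressed as TGI (%) and T/C (%) from relative tumor volume Vt/V0, with V0 taken at grouping and dosing start; P<0.05 significant.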

[2] = Method in brief: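 Female SPF Balb/c nude mice bearing subcutaneous HCT-116 xenografts (3×10^6 cells, right hind limb), grouped at 60–150 mm^3, 6 per group; vehicle ethanol/Cremophor EL/saline 5:5:90. Body weight thrice weekly; tumours excised and weighed at sacrifice; Mean±SEM, unpaired t-test, P<0.05.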
[3] = Day 0, G10-G16 groups, single IP 400 mg/kg
[4] = Day 0, G10-G16 groups, single IP 400 mg/kg, Mean±SEM
[5] = Day 1, G10-G16 groups, single IP 400 mg/kg, Mean±SEM
[6] = Day 2, G10-G16 groups, single IP 400 mg/kg, Mean±SEM
[7] = Day 4, G10-G16 groups, single IP 400 mg/kg, Mean±SEM
[8] = Day 7, G10-G16 groups, single IP 400 mg/kg, Mean±SEM
[9] = Day 9, G10-G16 groups, single IP 400 mg/kg, Mean±SEM
[10] = Day 11, G10-G16 groups, single IP 400 mg/kg, Mean±SEM
[11] = Day 14, G10-G16 groups, single IP 400 mg/kg, Mean±SEM
[12] = Day 16, G10-G16 groups, single IP 400 mg/kg, Mean±SEM
[13] = Day 18, G10-G16 groups, single IP 400 mg/kg, Mean±SEM
[14] = Day 21, G10-G16 groups, single IP 400 mg/kg, Mean±SEM
[15] = Day 23, G10-G16 groups, single IP 400 mg/kg, Mean±SEM
[16] = Day 25, G10-G16 groups, single IP 400 mg/kg, Mean±SEM
[17] = Day 28, G10-G16 groups, single IP 400 mg/kg, Mean±SEM
[18] = Day 30, G10-G16 groups, single IP 400 mg/kg, Mean±SEM

For `CCCCOC(=O)Nc1nc(=O)n([C@@H]2O[C@H](COC(=O)Cn3cnc([N+](=O)[O-])c3)C(O)C2(F)F)cc1I` (stereo partly shown) [Compound G12], the “Day 0 (RTV)” value [1, 3] was 1.00, the “Tumor volume, Day 0” value [1, 4] was 70.49 ± 13.19* mm^3 and the “T/C % (relative tumor proliferation rate)” value ([1]; Day 0) was 0.00%. For the same compound, the “Day 1 (TGI %)” value ([1]; Day 1, G10-G16 groups, single IP 400 mg/kg) was 62.26%, the “Day 1 (RTV)” value [1, 5] was 1.12 ± 0.22 and the “Tumor volume, Day 1” value [1, 5] was 68.13 ± 11.02** mm^3. The “T/C % (relative tumor proliferation rate)” value ([1]; Day 1) was 66.60%, the “Day 2 (TGI %)” value ([1]; Day 2, G10-G16 groups, single IP 400 mg/kg) was 63.70% and the “Day 2 (RTV)” value [1, 6] was 1.28 ± 0.22. The “Tumor volume, Day 2” value [1, 6] was 80.54 ± 15.99** mm^3, the “T/C % (relative tumor proliferation rate)” value ([1]; Day 2) was 61.57% and the “Day 4 (TGI %)” value ([1]; Day 4, G10-G16 groups, single IP 400 mg/kg) was 58.48%. The “Day 4 (RTV)” value [1, 7] was 1.80 ± 0.23, the “Tumor volume, Day 4” value [1, 7] was 123.31 ± 27.06** mm^3 and the “T/C % (relative tumor proliferation rate)” value ([1]; Day 4) was 65.24%. For the same compound, the “Day 7 (TGI %)” value ([1]; Day 7, G10-G16 groups, single IP 400 mg/kg) was 51.81%, the “Day 7 (RTV)” value [1, 8] was 3.07 ± 0.38 and the “Tumor volume, Day 7” value [1, 8] was 208.41 ± 44.11** mm^3. The “T/C % (relative tumor proliferation rate)” value ([1]; Day 7) was 75.07%, the “Day 9 (TGI %)” value ([1]; Day 9, G10-G16 groups, single IP 400 mg/kg) was 49.03% and the “Day 9 (RTV)” value [1, 9] was 4.37 ± 0.50. For the same compound, the “Tumor volume, Day 9” value [1, 9] was 300.88 ± 62.43* mm^3, the “T/C % (relative tumor proliferation rate)” value ([1]; Day 9) was 77.79% and the “Day 11 (TGI %)” value ([1]; Day 11, G10-G16 groups, single IP 400 mg/kg) was 51.33%. The “Day 11 (RTV)” value [1, 10] was 7.11 ± 1.07, the “Tumor volume, Day 11” value [1, 10] was 475.09 ± 105.26** mm^3 and the “T/C % (relative tumor proliferation rate)” value ([1]; Day 11) was 77.05%. For the same compound, the “Day 14 (TGI %)” value ([1]; Day 14, G10-G16 groups, single IP 400 mg/kg) was 39.61%, the “Day 14 (RTV)” value [1, 11] was 13.07 ± 2.18 and the “Tumor volume, Day 14” value [1, 11] was 869.70 ± 190.68* mm^3. The “T/C % (relative tumor proliferation rate)” value ([1]; Day 14) was 94.48%, the “Day 16 (TGI %)” value ([1]; Day 16, G10-G16 groups, single IP 400 mg/kg) was 30.00% and the “Day 16 (RTV)” value [1, 12] was 19.45 ± 2.82. For the same compound, the “Tumor volume, Day 16” value [1, 12] was 1267.85 ± 225.13 mm^3, the “T/C % (relative tumor proliferation rate)” value ([1]; Day 16) was 112.70% and the “Day 18 (TGI %)” value ([1]; Day 18, G10-G16 groups, single IP 400 mg/kg) was 19.24%. For the same compound, the “Day 18 (RTV)” value [1, 13] was 26.31 ± 5.44, the “Tumor volume, Day 18” value [1, 13] was 1613.91 ± 242.24 mm^3 and the “T/C % (relative tumor proliferation rate)” value ([1]; Day 18) was 137.82%. The “Day 21 (TGI %)” value ([1]; Day 21, G10-G16 groups, single IP 400 mg/kg) was 21.29%, the “Day 21 (RTV)” value [1, 14] was 32.69 ± 8.02 and the “Tumor volume, Day 21” value [1, 14] was 1924.26 ± 257.46 mm^3. For the same compound, the “T/C % (relative tumor proliferation rate)” value ([1]; Day 21) was 139.66%, the “Day 23 (TGI %)” value ([1]; Day 23, G10-G16 groups, single IP 400 mg/kg) was 17.69% and the “Day 23 (RTV)” value [1, 15] was 33.10 ± 7.89. The “Tumor volume, Day 23” value [1, 15] was 1943.90 ± 242.19 mm^3, the “T/C % (relative tumor proliferation rate)” value ([1]; Day 23) was 167.43% and the “Day 25 (TGI %)” value ([1]; Day 25, G10-G16 groups, single IP 400 mg/kg) was 17.26%. For the same compound, the “Day 25 (RTV)” value [1, 16] was 36.50 ± 8.74, the “Tumor volume, Day 25” value [1, 16] was 2136.52 ± 258.58 mm^3 and the “T/C % (relative tumor proliferation rate)” value ([1]; Day 25) was 168.82%. For the same compound, the “Day 28 (TGI %)” value ([1]; Day 28, G10-G16 groups, single IP 400 mg/kg) was 24.12%, the “Day 28 (RTV)” value [1, 17] was 43.13 ± 14.83 and the “Tumor volume, Day 28” value [1, 17] was 2040.64 ± 281.98 mm^3. For the same compound, the “T/C % (relative tumor proliferation rate)” value ([1]; Day 28) was 204.13%, the “Day 30 (TGI %)” value ([1]; Day 30, G10-G16 groups, single IP 400 mg/kg) was 16.67% and the “Day 30 (RTV)” value [1, 18] was 49.17 ± 15.89. For the same compound, the “Tumor volume, Day 30” value [1, 18] was 2338.31 ± 292.39 mm^3, the “T/C % (relative tumor proliferation rate)” value ([1]; Day 30) was 198.17% and the “Weight change rate, Day 0” value [2, 3] was 0.00%. For the same compound, the “Weight of mice, Day 0” value [2, 4] was 20.05 ± 0.26 g, the “Weight change rate, Day 1” value [2, 5] was −2.59 ± 1.08% and the “Weight of mice, Day 1” value [2, 5] was 19.53 ± 0.36 g. The “Weight change rate, Day 2” value [2, 6] was −3.15 ± 0.93%, the “Weight of mice, Day 2” value [2, 6] was 19.42 ± 0.29 g and the “Weight change rate, Day 4” value [2, 7] was −1.54 ± 1.11%. The “Weight of mice, Day 4” value [2, 7] was 19.73 ± 0.25 g, the “Weight change rate, Day 7” value [2, 8] was −0.93 ± 1.50 % and the “Weight of mice, Day 7” value [2, 8] was 19.85 ± 0.21 g. For the same compound, the “Weight change rate, Day 9” value [2, 9] was 2.11 ± 2.28%, the “Weight of mice, Day 9” value [2, 9] was 20.45 ± 0.32 g and the “Weight change rate, Day 11” value [2, 10] was 3.34 ± 2.25%. The “Weight of mice, Day 11” value [2, 10] was 20.70 ± 0.36 g, the “Weight change rate, Day 14” value [2, 11] was 1.76 ± 2.11 % and the “Weight of mice, Day 14” value [2, 11] was 20.38 ± 0.32 g. For the same compound, the “Weight change rate, Day 16” value [2, 12] was 2.56 ± 1.91 %, the “Weight of mice, Day 16” value [2, 12] was 20.55 ± 0.34 g and the “Weight change rate, Day 18” value [2, 13] was 5.03 ± 2.23 %. The “Weight of mice, Day 18” value [2, 13] was 21.05 ± 0.46 g, the “Weight change rate, Day 21” value [2, 14] was 3.68 ± 2.13 % and the “Weight of mice, Day 21” value [2, 14] was 20.78 ± 0.48 g. The “Day 22 Mortality” value ([2]; Day 22, single IP dose (mg/kg)) was 0%, the “Weight change rate, Day 23” value [2, 15] was 4.37 ± 1.91 % and the “Weight of mice, Day 23” value [2, 15] was 20.92 ± 0.38 g. The “Weight change rate, Day 25” value [2, 16] was 6.69 ± 1.87 %, the “Weight of mice, Day 25” value [2, 16] was 21.38 ± 0.39 g and the “Weight change rate, Day 28” value [2, 17] was 4.43 ± 0.69%. The “Weight of mice, Day 28” value [2, 17] was 20.68 ± 0.31 g, the “Weight change rate, Day 30” value [2, 18] was 5.67 ± 0.86% and the “Weight of mice, Day 30” value [2, 18] was 20.93 ± 0.43 g. The clinical symptoms ([2]; after single IP dose, compared with model control group) was “no significant differences in clinical symptoms”.
